Test results reported in ChEMBL document CHEMBL4196088, “Induction of cell killing and autophagy by amphiphilic pyrrolidine derivatives on human pancreatic cancer cells” (Eur J Med Chem, 2018).
The source made the active and inactive calls. No cut-off for these calls is given here.

Experiments:
[1] = test system: PANC-1; assay: Induction of apoptosis in human PANC1 cells assessed as accumulation at sub-G0/G1 phase at 10 uM after 24 hrs by propidium iodide staining based flow cytometry (reference value: 0.6 to 0.7%); assay type: functional
[2] = test system: BXPC-3; assay: Induction of apoptosis in human BxPC3 cells assessed as accumulation at sub-G0/G1 phase harboring pSFFV-Bcl-XL at 20 uM after 72 hrs by propidium iodide staining based flow cytometry (reference value: 1.3%); assay type: functional
[3] = Induction of apoptosis in HPNE cells assessed as accumulation at sub-G0/G1 phase at 10 uM after 48 hrs by propidium iodide staining based flow cytometry (reference value: 0.7%); assay type: cell-based; details: human
[4] = test system: MIA PaCa-2; assay: Induction of apoptosis in human MIAPaCa2 cells assessed as late apoptotic cells at 20 uM after 48 hrs by Annexin V-FITC/propidium iodide staining based flow cytometry (reference value: 7.4%); assay type: functional
[5] = test system: MIA PaCa-2; assay: Induction of apoptosis in human MIAPaCa2 cells assessed as late apoptotic cells at 20 uM after 24 hrs by Annexin V-FITC/propidium iodide staining based flow cytometry (reference value: 7.4%); assay type: functional
[6] = Induction of apoptosis in HPNE cells assessed as accumulation at sub-G0/G1 phase at 10 uM after 24 hrs by propidium iodide staining based flow cytometry (reference value: 0.6%); assay type: cell-based; details: human
[7] = Induction of apoptosis in HPNE cells assessed as accumulation at sub-G0/G1 phase at 20 uM after 24 hrs by propidium iodide staining based flow cytometry (reference value: 0.6%); assay type: cell-based; details: human
[8] = test system: BXPC-3; assay: Induction of apoptosis in human BxPC3 cells assessed as accumulation at sub-G0/G1 phase at 10 uM after 72 hrs by propidium iodide staining based flow cytometry (reference value: 3.4%); assay type: functional
[9] = test system: Fibroblast; assay: Induction of apoptosis in human primary fibroblasts at 20 uM after 48 hrs by propidium iodide staining based flow cytometry (reference value: 6.1%); assay type: cell-based
[10] = test system: BXPC-3; assay: Induction of apoptosis in human BxPC3 cells assessed as accumulation at sub-G0/G1 phase at 10 uM after 48 hrs by propidium iodide staining based flow cytometry (reference value: 2.8%); assay type: functional
[11] = test system: BXPC-3; assay: Induction of apoptosis in human BxPC3 cells assessed as increase in cleaved PARP protein expression at 20 uM after 15 to 48 hrs by Western blot analysis; assay type: functional, cell-based
[12] = test system: MIA PaCa-2; assay: Induction of apoptosis in human MIAPaCa2 cells assessed as live cells at 20 uM after 24 hrs by Annexin V-FITC/propidium iodide staining based flow cytometry (reference value: 86.79%); assay type: functional
[13] = test system: BXPC-3; assay: Induction of apoptosis in human BxPC3 cells assessed as accumulation at sub-G0/G1 phase at 20 uM after 24 hrs by propidium iodide staining based flow cytometry (reference value: 2.3%); assay type: functional
[14] = test system: BXPC-3; assay: Induction of apoptosis in human BxPC3 cells harboring pSFFV-Bcl-XL assessed as accumulation at sub-G0/G1 phase at 10 uM after 72 hrs by propidium iodide staining based flow cytometry (reference value: 2%); assay type: functional
[15] = test system: Fibroblast; assay: Induction of apoptosis in human primary fibroblasts assessed as accumulation at sub-G0/G1 phase at 10 uM after 72 hrs by propidium iodide staining based flow cytometry (reference value: 6.7%); assay type: cell-based
[16] = test system: PK9; assay: Induction of apoptosis in human PK9 cells assessed as accumulation at sub-G0/G1 phase at 10 uM after 48 hrs by propidium iodide staining based flow cytometry (reference value: 3.8%); assay type: functional
[17] = test system: MIA PaCa-2; assay: Induction of apoptosis in human MIAPaCa2 cells assessed as live cells at 20 uM after 48 hrs by Annexin V-FITC/propidium iodide staining based flow cytometry (reference value: 86.79%); assay type: functional
[18] = test system: PANC-1; assay: Induction of apoptosis in human PANC1 cells assessed as accumulation at sub-G0/G1 phase at 10 uM after 72 hrs by propidium iodide staining based flow cytometry (reference value: 1.6 to 3.2%); assay type: functional
[19] = test system: MIA PaCa-2; assay: Induction of apoptosis in human MIAPaCa2 cells assessed as necrotic cells at 20 uM after 24 hrs by Annexin V-FITC/propidium iodide staining based flow cytometry (reference value: 0.63%); assay type: functional
[20] = test system: BXPC-3; assay: Induction of apoptosis in human BxPC3 cells assessed as accumulation at sub-G0/G1 phase at 20 uM after 48 hrs by propidium iodide staining based flow cytometry (reference value: 2.8%); assay type: functional
[21] = test system: Fibroblast; assay: Induction of apoptosis in human primary fibroblasts at 20 uM after 24 hrs by propidium iodide staining based flow cytometry (reference value: 4.8%); assay type: cell-based
[22] = test system: MIA PaCa-2; assay: Induction of apoptosis in human MIAPaCa2 cells assessed as early apoptotic cells at 20 uM after 24 hrs by Annexin V-FITC/propidium iodide staining based flow cytometry (reference value: 5.16%); assay type: functional
[23] = Induction of apoptosis in HPNE cells assessed as accumulation at sub-G0/G1 phase at 20 uM after 72 hrs by propidium iodide staining based flow cytometry (reference value: 6.6%); assay type: cell-based; details: human
[24] = test system: BXPC-3; assay: Induction of apoptosis in human BxPC3 cells harboring pSFFV-Bcl-XL assessed as accumulation at sub-G0/G1 phase at 10 uM after 48 hrs by propidium iodide staining based flow cytometry (reference value: 1.9%); assay type: functional
[25] = test system: BXPC-3; assay: Induction of apoptosis in human BxPC3 cells assessed as accumulation at sub-G0/G1 phase harboring pSFFV-Bcl-XL at 20 uM after 48 hrs by propidium iodide staining based flow cytometry (reference value: 1.3%); assay type: functional
[26] = test system: MIA PaCa-2; assay: Induction of apoptosis in human MIAPaCa2 cells assessed as early apoptotic cells at 20 uM after 48 hrs by Annexin V-FITC/propidium iodide staining based flow cytometry (reference value: 5.16%); assay type: functional
[27] = test system: PANC-1; assay: Induction of apoptosis in human PANC1 cells assessed as accumulation at sub-G0/G1 phase at 20 uM after 24 hrs by propidium iodide staining based flow cytometry (reference value: 0.6 to 0.7%); assay type: functional
[28] = test system: BXPC-3; assay: Induction of apoptosis in human BxPC3 cells harboring pSFFV-Bcl-XL assessed as accumulation at sub-G0/G1 phase at 10 uM after 24 hrs by propidium iodide staining based flow cytometry (reference value: 1.5%); assay type: functional
[29] = test system: PK9; assay: Induction of apoptosis in human PK9 cells assessed as accumulation at sub-G0/G1 phase at 20 uM after 24 hrs by propidium iodide staining based flow cytometry (reference value: 2.2%); assay type: functional
[30] = test system: Fibroblast; assay: Induction of apoptosis in human primary fibroblasts assessed as accumulation at sub-G0/G1 phase at 10 uM after 48 hrs by propidium iodide staining based flow cytometry (reference value: 6.1%); assay type: cell-based
[31] = test system: PK9; assay: Induction of apoptosis in human PK9 cells assessed as accumulation at sub-G0/G1 phase at 20 uM after 48 hrs by propidium iodide staining based flow cytometry (reference value: 3.8%); assay type: functional
[32] = test system: PANC-1; assay: Induction of apoptosis in human PANC1 cells assessed as accumulation at sub-G0/G1 phase at 20 uM after 48 hrs by propidium iodide staining based flow cytometry (reference value: 0.2 to 2.9%); assay type: functional
[33] = test system: PANC-1; assay: Induction of apoptosis in human PANC1 cells assessed as accumulation at sub-G0/G1 phase at 20 uM after 72 hrs by propidium iodide staining based flow cytometry (reference value: 1.6 to 3.2%); assay type: functional

Row | Structure (SMILES) | Activity [1] [%] | Activity [2] [%] | Activity [3] [%] | Activity [4] [%] | Activity [5] [%] | Activity [6] [%] | Activity [7] [%] | Activity [8] [%] | Activity [9] [%] | Activity [10] [%] | Activity [11] | Activity [12] [%] | Activity [13] [%] | Activity [14] [%] | Activity [15] [%] | Activity [16] [%] | Activity [17] [%] | Activity [18] [%] | Activity [19] [%] | Activity [20] [%] | also measured
1 | CCCCCC/C=C\CCCCCCCCOC[C@H]1NC[C@H](O)[C@@H]1O | 6.7 | 8.6 | 30.8 | 44.69 | 10.68 | 23.9 | 70.6 | 20.8 | 13.9 | 12.8 | Active | 76.71 | 15.8 | 4.1 | 9.5 | 6.1 | 4.4 | 18.6 | 0.71 | 33.7 | Activity [21]: 9.2%; Activity [22]: 11.88%; Activity [23]: 81.7%; Activity [24]: 3.7%; Activity [25]: 6.7%; Activity [26]: 47.46%; Activity [27]: 5.3%; Activity [28]: 2%; Activity [29]: 10.1%; Activity [30]: 8.7%; Activity [31]: 20%; Activity [32]: 14.5%; Activity [33]: 27.1%
2 | CCCCCCCCCCCCCCCCCCOCC(COP(=O)([O-])OCC[N+](C)(C)C)OC (stereo unspecified) [EDELFOSINE] | 3.2 | 2.8 | 3.5 | 45.92 | 52.52 | 1.9 | 2.8 | 24.3 | 8.6 | 16.5 | Active | 11.51 | 16.8 | 2.6 | 8.7 | 8 | 2.49 | 15.8 | 7.47 | 28.9 | Activity [21]: 7.3%; Activity [22]: 28.49%; Activity [23]: 8.2%; Activity [24]: 3.7%; Activity [25]: 5%; Activity [26]: 49.78%; Activity [27]: 8.46%; Activity [28]: 1.8%; Activity [29]: 4.8%; Activity [30]: 7.2%; Activity [31]: 11.2%; Activity [32]: 16.2%; Activity [33]: 23.2%
